Source: ChEMBL document CHEMBL4261569, “Identification of novel N-acetylcysteine derivatives for the treatment of hepatocellular injury” (Medchemcomm, 2017)
Active and inactive are the calls of the source. The calls are words filed in the database; no cut-off is given here.

Experiments:
[1] = tested on: L02; test: Cytoprotection against H2O2 induced cytotoxicity in human LO2 cells assessed as increase in cell viability preincubated for 24 hrs followed by H2O2 addition measured after 6 hrs by CCK-8 assay; assay type: functional, cell-based
[2] = tested on: L02; test: Cytoprotection against APAP induced cytotoxicity in human LO2 cells assessed as decrease in MDA level at 100 mmol after 15 mins by lipid oxidation assay; assay type: functional, cell-based
[3] = tested on: L02; test: Cytoprotection against APAP induced cytotoxicity in human LO2 cells assessed as increase in cell viability preincubated for 24 hrs followed by […] hrs by CCK-8 assay; assay type: functional, cell-based
[4] = tested on: L02; test: Cytoprotection against H2O2 induced cytotoxicity in human LO2 cells assessed as decrease in MDA level at 100 mmol after 15 mins by lipid oxidation assay; assay type: functional, cell-based
[5] = tested on: L02; test: Cytotoxicity against human LO2 cells assessed as reduction in cell viability after 24 hrs by CCK-8 assay; assay type: cell-based; conditions: l02, 24 h
[6] = Apparent permeability across apical to basolateral side in human Caco2 cells at 10 uM after 1.5 hrs by LC-MS/MS analysis; assay type: ADME, cell-based; conditions: Caco-2
[7] = Drug excretion in iv dosed human; assay type: ADME, organism-based; conditions: in vivo, read-out: Drug excretion
[8] = Apparent permeability across basolateral to apical side in human Caco2 cells at 10 uM after 1.5 hrs by LC-MS/MS analysis; assay type: ADME, cell-based; conditions: Caco-2
[9] = Terminal half life in iv dosed human plasma; assay type: ADME, organism-based; conditions: read-out: beta t1/2 (converted)
[10] = Oral bioavailability in human; assay type: ADME, organism-based; conditions: in vivo
[11] = Oral bioavailability in Sprague-Dawley rat at 20 mg/kg by LC-MS/MS analysis; assay type: ADME, organism-based; conditions: in vivo
[12] = Efflux ratio of apparent permeability across basolateral to apical side over apical to basolateral side in human Caco2 cells at 10 uM after 1.5 hrs by LC-MS/MS analysis; assay type: ADME, cell-based; conditions: Caco-2
[13] = Cmax in Sprague-Dawley rat at 10 mg/kg, iv or 20 mg/kg, po by LC-MS/MS analysis; assay type: ADME, organism-based; conditions: in vivo
[14] = Terminal half life in Sprague-Dawley rat at 20 mg/kg, po by LC-MS/MS analysis; assay type: ADME, organism-based; conditions: in vivo, read-out: beta t1/2 (converted)
[15] = AUC in Sprague-Dawley rat at 10 mg/kg, iv or 20 mg/kg, po by LC-MS/MS analysis; assay type: ADME, organism-based; conditions: in vivo

| Compound | Activity [1] | Activity [4] | further results |
| --- | --- | --- | --- |
| COC(=O)[C@H](CSC)NC(=O)c1ccc(F)cc1 | inactive | – | – |
| COC(=O)[C@H](CSC)NC(C)=O | inactive | – | – |
| CSC[C@H](NC(C)=O)C(=O)Nc1ccccc1 | Active | Active | Activity [2]: Active; Activity [3]: inactive |
| CSC[C@H](NC(C)=O)C(=O)OC(C)(C)C | inactive | – | Activity [5]: Toxic |
| CCC(=O)N[C@@H](CSC)C(=O)NC | Active | – | – |
| CSC[C@H](NC(=O)C1CCCCC1)C(=O)OC(C)(C)C | inactive | – | Activity [5]: Toxic |
| CCC(=O)N[C@@H](CSC)C(=O)Nc1ccccc1 | Active | – | – |
| CSC[C@H](NC(=O)c1ccc(F)cc1)C(=O)O | Active | Active | – |
| COC(=O)[C@H](CSC)NC(=O)C1CCCCC1 | inactive | – | – |
| CSC[C@H](NC(=O)c1ccccc1)C(=O)OC(C)(C)C | inactive | – | Activity [5]: Toxic |
| CSC[C@H](NC(=O)c1ccccc1)C(=O)NC1CCCCC1 | Active | – | – |
| CNC(=O)[C@H](CSC)NC(=O)C1CCCCC1 | Active | Active | – |
| CCC(=O)N[C@@H](CSC)C(=O)OC | inactive | – | – |
| CSC[C@H](NC(C)=O)C(=O)O | Active | Active | – |
| COC(=O)[C@H](CSC)NC(=O)c1ccccc1 | inactive | – | – |
| CC(=O)N[C@@H](CS)C(=O)O [ACETYLCYSTEINE] | – | Active | Papp A→B at 1.5 h, 10 µM [6]: < 1.09 ×10⁻⁶ cm/s; Activity [2]: Active; dose excreted [7]: 30%; Papp B→A at 1.5 h, 10 µM [8]: < 0.61 ×10⁻⁶ cm/s; half-life [9]: 5.6 h; bioavailability [10]: < 5% |
| CCC(=O)N[C@@H](CSC)C(=O)NC1CCCCC1 | Active | Active | Activity [2]: Active; Activity [3]: Active |
| CSC[C@H](NC(C)=O)C(=O)NC1CCCCC1 | Active | Active | bioavailability [11]: 52.8%; efflux ratio at 1.5 h, 10 µM [12]: 1.11; Cmax [13]: 2140 ng/mL; Papp A→B at 1.5 h, 10 µM [6]: 19.7 ×10⁻⁶ cm/s; Activity [2]: Active; half-life [14]: 5.62 h; Papp B→A at 1.5 h, 10 µM [8]: 21.8 ×10⁻⁶ cm/s; Activity [3]: Active; AUC [15]: 3080 ng·h/mL |
| CSC[C@H](NC(=O)c1ccc(F)cc1)C(=O)OC(C)(C)C | inactive | – | Activity [5]: Toxic |
| CNC(=O)[C@H](CSC)NC(=O)c1ccccc1 | Active | inactive | – |
| CCC(=O)N[C@@H](CSC)C(=O)O | Active | Active | – |
| CSC[C@H](NC(=O)c1ccccc1)C(=O)Nc1ccccc1 | Active | – | – |
| CSC[C@H](NC(=O)c1ccccc1)C(=O)O | Active | Active | – |
| CCC(=O)N[C@@H](CSC)C(=O)OC(C)(C)C | inactive | – | Activity [5]: Toxic |
| CSC[C@H](NC(=O)C1CCCCC1)C(=O)O | Active | Active | – |
